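A five-concentration, 48-hour dose response in 96-well plates underlies each endpoint, interpolated linearly between surrounding concentrations. Here, GI50 denotes the concentration required for 50% inhibition of growth.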 Calls of active or inactive are those of the source. Rule as the data show it: active = GI50 up to about 1.1 µM and inactive = higher. Where a SMILES comes first, the peptide text is derived from it. The star is where a group is joined. Boc = CC(C)(C)OC(=O)*; OSu = O=C1CCC(=O)N1O*
Columns and labels:
Assay in all cases: NCI-60 cell line screen, 48 h
UACC-257 = tested on: UACC-257
RXF 393 = tested on: RXF 393
786-0 = tested on: 786-0
CAKI-1 = tested on: CAKI-1
SR = tested on: SR
HT-29 = tested on: HT-29
HOP-92 = tested on: HOP-92
K562 = tested on: K562
HL-60 = tested on: HL-60
COLO 205 = tested on: COLO 205
IGROV-1 = tested on: IGROV-1
A549 = tested on: A549
A498 = tested on: A498
TK-10 = tested on: TK-10
SF-295 = tested on: SF-295
UO-31 = tested on: UO-31
RPMI-8226 = tested on: RPMI-8226
HCC 2998 = tested on: HCC 2998

Measured: GI50

O=C1NC2(CCCCCC2)C2CCCCCCC12O (stereo not given)
inactive: UACC-257 > 100 µM | RXF 393 > 100 µM | 786-0 > 100 µM | CAKI-1 > 100 µM | SR > 100 µM | HT-29 > 100 µM | HOP-92 > 100 µM | K562 > 100 µM | HL-60 > 100 µM | COLO 205 > 100 µM | IGROV-1 > 100 µM | A549 > 100 µM | A498 > 100 µM | TK-10 > 100 µM | SF-295 > 100 µM | UO-31 > 100 µM

O=c1c2cccc3cccc(c4oc5c6cccc7cccc(c(=O)c5c14)c76)c32
inactive: UACC-257 17.1 µM | RXF 393 11.2 µM | 786-0 11.2 µM | CAKI-1 15.8 µM | SR 7.66 µM | HT-29 13.8 µM | HOP-92 8.22 µM | K562 > 10 µM | RPMI-8226 12.8 µM | HCC 2998 27.2 µM | HL-60 9.18 µM | COLO 205 10.9 µM | IGROV-1 16.9 µM | A549 2.06 µM | A498 > 100 µM | TK-10 11.6 µM | SF-295 17.9 µM | UO-31 13.5 µM

CCCCCCCCC(O)C#CC(N)=O (stereo not given)
inactive: UACC-257 13 µM | RXF 393 13.7 µM | 786-0 12.7 µM | CAKI-1 8.67 µM | SR 12.9 µM | HT-29 12.1 µM | HOP-92 10.5 µM | K562 13.3 µM | RPMI-8226 7.48 µM | HCC 2998 10.6 µM | HL-60 10.8 µM | A549 14.7 µM | A498 16.4 µM | TK-10 16 µM | SF-295 39 µM | UO-31 10 µM

CCN(CC)CCN1CCc2c([nH]c3ccccc23)C1c1cccnc1 (stereo not given)
inactive: UACC-257 37.5 µM | 786-0 > 100 µM | CAKI-1 > 100 µM | SR > 100 µM | HT-29 > 100 µM | HOP-92 65 µM | K562 88.9 µM | RPMI-8226 > 100 µM | HCC 2998 > 100 µM | HL-60 99.3 µM | IGROV-1 > 100 µM | A549 > 100 µM | A498 > 100 µM | TK-10 > 100 µM | SF-295 > 100 µM | UO-31 37.2 µM

O=C(C(=O)c1cc2ccccc2[nH]1)c1cc2ccccc2[nH]1
inactive: UACC-257 > 204 µM | RXF 393 91.4 µM | 786-0 > 284 µM | CAKI-1 234 µM | SR 12.3 µM | HT-29 > 347 µM | HOP-92 > 127 µM | K562 > 332 µM | RPMI-8226 22 µM | HCC 2998 > 347 µM | HL-60 195 µM | COLO 205 > 347 µM | IGROV-1 > 347 µM | A549 > 347 µM | A498 > 347 µM | TK-10 > 347 µM | SF-295 > 347 µM | UO-31 > 347 µM

CC(C)(C)OC(=O)NC(Cc1ccc(O)cc1)C(=O)NC(CCCCN)C(=O)NC(Cc1ccc(O)cc1)C(=O)NC(CCCCN)C(=O)ON1C(=O)CCC1=O (stereo not given) (Boc-YKYK-OSu; configuration not given here)
inactive: UACC-257 > 100 µM | RXF 393 > 100 µM | 786-0 > 100 µM | SR > 100 µM | HT-29 89.3 µM | HOP-92 > 100 µM | K562 > 100 µM | RPMI-8226 > 100 µM | HCC 2998 > 100 µM | HL-60 > 100 µM | COLO 205 > 100 µM | IGROV-1 85.3 µM | A549 > 100 µM | A498 > 100 µM | TK-10 > 100 µM | UO-31 > 100 µM
